Laboratory results from patent US9321750B2, “ROR modulators and their uses” (INNOV17 LLC, priority 2012, dated 2016).
pEC50, pIC50: −log10 of the molar value.

How the values were obtained:
[1] = tested on: IL-17A; test: TH17 cytokine inhibition as measured by ELISA: IL-17A; type: cell-based; conditions: 120 h; human TH17 cells, 5 days differentiation, ELISA of supernatant
Method: (§1) Peripheral blood mononuclear cells (PBMCs) were sourced from freshly prepared leukocyte enriched plasma (buffy coat) from healthy volunteers from which PBMCs were isolated by density gradient centrifugation using Ficoll-Paque™ PLUS (GE Healthcare). Naïve CD4+ T cells were isolated using the Naïve CD4+ T cell Isolation Kit II (Miltenyi Biotec) as per manufacturer's instructions. CD4+ T cells were plated at 5×10^4 cells/well in 96 well plates pre-coated with immobilized human (h)-αCD3 antibody (eBioscience) then differentiated to TH17 cells using h-αCD28, h-αIFNγ, h-αIL4, h-IL6, h-IL23, h-IL1β, h-TGFβ1 (eBioscience) and maintained in a cell culture incubator at 37° C. with 5% CO2 in TexMACS Medium (Miltenyi Biotec) supplemented with 1% Penicillin/Streptomycin (Lonza) over 5 days.
(§2) Human CD4+ T cells were differentiated to TH17 cells as described in the presence or absence of various concentrations of compounds in a final concentration of 0.1% DMSO in TexMACS medium. Supernatants were collected and stored at −20° C. until they were to be assayed for IL-17A, IL-17F, IL-17AF, IL-21 and/or IL-22 levels as determined by Ready-Set-Go ELISA kits (eBioscience) as per manufacturer's instructions. Endpoint absorbance was read at 450 nm and 570 nm according to manufacturer's instructions (eBioscience) using a microplate reader (Perkin Elmer). The percentage of cytokine inhibition was calculated with reference to DMSO treated cells and the IC50s were determined by GraphPad Prism software and presented in the table below.

[2] = tested on: IL-17F; test: TH17 cytokine inhibition as measured by ELISA: IL-17F; type: cell-based; conditions: 120 h; human TH17 cells, 5 days differentiation, ELISA of supernatant
Method: as §1, §2

[3] = tested on: IL-17AF; test: TH17 cytokine inhibition as measured by ELISA: IL-17AF; type: cell-based; conditions: 120 h; human TH17 cells, 5 days differentiation, ELISA of supernatant
Method: as §1, §2

[4] = TH17 cell viability (Prestoblue); type: cell-based; set-up: concentration or dose not given beside the values; conditions: human; percentage of DMSO treated cells; read-out: % viability of compound treated TH17 cells
Method: as §1
Cells were assayed for viability in the presence or absence of compound using Prestoblue® Cell Viability Reagent (Life Technologies) as per manufacturer's instructions after 30 minutes incubation of TH17 cells with reagent. Absorbance was measured at 570 nm and 600 nm using a microplate reader (Perkin Elmer) and data were analyzed as per manufacturer's instructions. Cell viability was expressed as a percentage of DMSO treated cells.

[5] = tested on: TH17 cells; test: TH17 cellular proliferation (Prestoblue); type: cell-based; conditions: Homo sapiens, 120 h; 3 μM compound, after 5 day TH17 differentiation, relative to DMSO treated TH17 cells; read-out: % change in TH17 cell number
Method: as §1
Cellular proliferation was assessed in the presence or absence of 3 μM compound using Prestoblue® Cell Viability Reagent (Life Technologies) as per manufacturer's instructions using absorbance as the output measured by a microplate reader (Perkin Elmer) after 30 minutes of incubation of cells and reagent. A standard curve developed by plotting varying cell numbers versus absorbance was used to assess differences in cellular proliferation between compound treated or untreated cells after the 5 day TH17 differentiation period.

[6] = biological target: T1, RORγ LBD (Homo sapiens (Human), UniProt P51449); test: RORγ LBD binding (Human RORγ Assay System, INDIGO Biosciences); conditions: 0.5% DMSO
Method: Compound binding to the human RORγ LBD was assessed using the Human RORγ Assay System (INDIGO Biosciences Inc.) as per manufacturer's instructions.

[7] = biological target: T1, RORγ LBD; test: TR-FRET co-activator D22 interaction with RORγ LBD; type: biochemical
Source text: (§3) The Time-Resolved Fluorescence Resonance Energy Transfer (TR-FRET) assay kit (Life Technologies) was used to measure compound efficacy to disrupt or enhance ligand-mediated interaction of the co-activator and co-repressor peptides with the purified GST-tagged (i) RORγ LBD or (ii) […]. The RORγ LBD and RORα LBD each have a basal level of interaction with the co-activator D22 or co-repressor NCoR1-D2 in the absence of ligand, thus it is possible to identify compounds that inhibit or induce RORγ and/or RORα co-activator/co-repressor interactions, thus determining RORα, RORγ, or RORα/RORγ compound selectivity. The assay was performed as per manufacturer's instructions and TR-FRET was assessed 2 and 20 hours post-assay initiation. Compounds were identified to (i) have no impact on either co-activator displacement or […] from the assessed LBD (ii) promote co-activator displacement from the assessed LBD (iii) promote co-repressor recruitment to the assessed LBD or (iv) concurrently promote co-activator displacement from the assessed LBD and co-repressor recruitment to the assessed LBD.

[8] = biological target: T1, RORγ LBD; test: TR-FRET co-repressor NCoR1-D2 interaction with RORγ LBD; type: biochemical
Source text: as §3

[9] = biological target: T2, RORα LBD (Homo sapiens (Human), UniProt P35398); test: TR-FRET co-activator D22 interaction with RORα LBD; type: biochemical
Source text: as §3

[10] = biological target: T2, RORα LBD; test: TR-FRET co-repressor NCoR1-D2 interaction with RORα LBD; type: biochemical
Source text: as §3

[11] = tested on: IL-22; test: TH17 cytokine inhibition as measured by ELISA: IL-22; type: cell-based; conditions: 120 h; human TH17 cells, 5 days differentiation, ELISA of supernatant
Method: as §1, §2

[12] = tested on: IL-17A; test: Real-time qRT-PCR in TH17 cells: IL-17A gene expression; type: cell-based, human; set-up: key: A: No change in gene expression observed relative to DMSO treated Th17 cells; B: Decreased gene expression observed relative to DMSO treated Th17 cells; C: Increased gene expression observed relative to DMSO treated Th17 cells
Method: as §1
(§4) RNA was isolated from TH17 cells and cDNA was synthesized using the Verso cDNA kit (Thermo Scientific) as per manufacturer's instructions. IL-17A, IL-17F, IL-21, IL-22, G-CSF, IL-23R and FOXP3 gene expression were determined for compound treated and untreated TH17 cell samples using Solaris qPCR Gene expression assays (Thermo Scientific) with an iCycler iQ Real-Time PCR Detection System (Bio-Rad). Individual gene expression was normalized to a panel of six reference genes (ACTB, TBP, HPRT1, PGK1, TFRC and PPIA) (Thermo Scientific) and analyzed by REST 2009 (Qiagen) in accordance to MIQE guidelines (Bustin et al. (2009) Clin. Chem, 55:611-622). The effects of compounds on TH17 cytokine mRNA levels are presented as fold change in gene expression of compound treated TH17 cells relative to DMSO treated cells in the table below.

[13] = tested on: IL-17F; test: Real-time qRT-PCR in TH17 cells: IL-17F gene expression; type: cell-based, human; set-up: key: A: No change in gene expression observed relative to DMSO treated Th17 cells; B: Decreased gene expression observed relative to DMSO treated Th17 cells; C: Increased gene expression observed relative to DMSO treated Th17 cells
Method: as §1, §4

[14] = tested on: IL-22; test: Real-time qRT-PCR in TH17 cells: IL-22 gene expression; type: cell-based, human; set-up: key: A: No change in gene expression observed relative to DMSO treated Th17 cells; B: Decreased gene expression observed relative to DMSO treated Th17 cells; C: Increased gene expression observed relative to DMSO treated Th17 cells
Method: as §1, §4

[15] = tested on: IL-21; test: Real-time qRT-PCR in TH17 cells: IL-21 gene expression; type: cell-based, human; set-up: key: A: No change in gene expression observed relative to DMSO treated Th17 cells; B: Decreased gene expression observed relative to DMSO treated Th17 cells; C: Increased gene expression observed relative to DMSO treated Th17 cells
Method: as §1, §4

[16] = tested on: IL-23R; test: Real-time qRT-PCR in TH17 cells: IL-23R gene expression; type: cell-based, human; set-up: key: A: No change in gene expression observed relative to DMSO treated Th17 cells; B: Decreased gene expression observed relative to DMSO treated Th17 cells; C: Increased gene expression observed relative to DMSO treated Th17 cells
Method: as §1, §4

[17] = tested on: FOXP3; test: Real-time qRT-PCR in TH17 cells: FOXP3 gene expression; type: cell-based, human; set-up: key: A: No change in gene expression observed relative to DMSO treated Th17 cells; B: Decreased gene expression observed relative to DMSO treated Th17 cells; C: Increased gene expression observed relative to DMSO treated Th17 cells
Method: as §1, §4

[18] = 2 hr, read-out: RORγ EC50 D22 co-activator displacement 2 hr
[19] = 20 hr, read-out: RORγ EC50 D22 co-activator displacement 20 hr
[20] = 2 hr, read-out: RORγ EC50 NCoR1-D2 co-repressor recruitment 2 hr
[21] = 20 hr, read-out: RORγ EC50 NCoR1-D2 co-repressor recruitment 20 hr
[22] = 2 hr, read-out: RORα EC50 D22 co-activator displacement 2 hr
[23] = 20 hr, read-out: RORα EC50 D22 co-activator displacement 20 hr
[24] = 2 hr, read-out: RORα EC50 NCoR1-D2 co-repressor recruitment 2 hr
[25] = 20 hr, read-out: RORα EC50 NCoR1-D2 co-repressor recruitment 20 hr

T1 sequence (P51449 269-508): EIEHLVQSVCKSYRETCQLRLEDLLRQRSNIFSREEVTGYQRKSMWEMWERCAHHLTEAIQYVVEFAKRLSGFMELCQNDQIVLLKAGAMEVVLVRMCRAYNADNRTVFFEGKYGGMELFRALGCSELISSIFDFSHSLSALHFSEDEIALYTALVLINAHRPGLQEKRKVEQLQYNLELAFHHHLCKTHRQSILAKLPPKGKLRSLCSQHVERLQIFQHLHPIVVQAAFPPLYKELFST
T2 sequence (P35398 272-510): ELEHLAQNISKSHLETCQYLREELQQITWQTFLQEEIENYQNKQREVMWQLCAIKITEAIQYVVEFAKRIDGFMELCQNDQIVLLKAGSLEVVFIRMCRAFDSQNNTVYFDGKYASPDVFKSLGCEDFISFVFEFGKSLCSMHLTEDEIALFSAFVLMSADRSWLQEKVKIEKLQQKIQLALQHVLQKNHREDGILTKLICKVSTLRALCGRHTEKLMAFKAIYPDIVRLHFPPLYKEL

Structure (SMILES)	pIC50 [1]	pIC50 [2]	viability [4]	inhibition at 3 µM [5]	pEC50 [7, 18]	pEC50 [7, 19]	pEC50 [8, 20]	pEC50 [8, 21]	pEC50 [9, 22]	pEC50 [9, 23]	pEC50 [10, 24]	pEC50 [10, 25]	other results
CC(=O)Nc1ccc2c(c1)CCC(=O)N2Cc1ccc(C(O)(C(F)(F)F)C(F)(F)F)cc1 [Example 3, N-(1-(4-(1,1,1,3,3,3-hexafluoro-2-hydroxypropan-2-yl)benzyl)-2-oxo-1,2,3,4-tetrahydroquinolin-6-yl)acetamide]	> 5.00	> 5.00	> 80%	≤ 50%	< 4.52	> 4.52	< 4.52	> 4.52	< 4.52	< 4.52	< 4.52	< 4.52	pIC50 [3]: < 5.00; pIC50 [6]: < 5.00
CS(=O)(=O)Nc1ccc2c(c1)CCC(=O)N2Cc1ccc(C(O)(C(F)(F)F)C(F)(F)F)cc1 [Example 6, N-(1-(4-(1,1,1,3,3,3-hexafluoro-2-hydroxypropan-2-yl)benzyl)-2-oxo-1,2,3,4-tetrahydroquinolin-6-yl)methanesulfonamide]	> 5.00	> 5.00	> 80%	≤ 50%	< 4.52	< 4.52	> 4.52	< 4.52	> 4.52	> 4.52	< 4.52	< 4.52	pIC50 [11]: > 5.00; Fold change in mRNA level of compound treated TH17 cells relative to DMSO treated cells IL-17A [12]: A; Fold change in mRNA level of compound treated TH17 cells relative to DMSO treated cells IL-17F [13]: B; Fold change in mRNA level of compound treated TH17 cells relative to DMSO treated cells IL-22 [14]: A; Fold change in mRNA level of compound treated TH17 cells relative to DMSO treated cells IL-21 [15]: A; Fold change in mRNA level of compound treated TH17 cells relative to DMSO treated cells IL-23R [16]: A; Fold change in mRNA level of compound treated TH17 cells relative to DMSO treated cells FOXP3 [17]: A
